From patent US20230407243A1, “GENETIC PLATFORM TO INVESTIGATE THE FUNCTIONS OF BACTERIAL DRUG EFFLUX PUMPS” (priority 2022, published 2023)
In brackets after ≈: the same amount, converted by molar mass. Several values for one entry are separate records, joined by “and”; a condition that tells them apart may be missing. Identical values can stand only once. Entries after “also recorded” stand apart in the source; their conditions may differ.

Assays:
Format in all cases: cell-based, Escherichia coli
EKO-35 gyrB (pCA24N) = test: MIC of strains harboring ASKA plasmids; conditions: 0.1 mM IPTG
EKO-35 rspA (pCA24N) = test: MIC of strains harboring ASKA plasmids; conditions: 0.1 mM IPTG
EKO-35 tufA (pCA24N) = test: MIC of strains harboring ASKA plasmids; conditions: 0.1 mM IPTG
[1] = test system: EKO-35 porinated strain expressing acrF (AcrEF); test: Checkerboard synergy (FICI), porinated strain; conditions: for PABN MICa Alone: PAβN alone, one value per checkerboard
Outline: (§1)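 Checkerboard broth microdilution in MHB II followed CLSI guidelines, with MIC defined as the lowest concentration giving no growth by OD600. FICI was calculated as CA/MICA + CB/MICB for PAβN or NMP combined with an antibiotic, with <0.5 classed as synergistic. Efflux-attributed fold resistance is the strain MIC divided by the EKO-35 MIC.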

[2] = test system: EKO-35 porinated strain expressing acrD; test: Checkerboard synergy (FICI), porinated strain
Outline: as §1

[3] = test system: EKO-35-Pore strains producing other efflux pumps; test: Checkerboard synergy (FICI), porinated strain
Outline: as §1

[4] = test system: EKO-35 strains with integrated RND tripartite efflux pumps (AcrB, AcrEF, AcrD, and MdtEF) with pGDP2:emrE or empty pGDP-2; test: Efflux pump interplay MIC profiling (pGDP2:emrE); conditions: for MIC / Fold Change from EKO-35: Pore −
[5] = test system: EKO-35-Pore strains with integrated AcrB, AcrEF, AcrD, MdtEF with pGDP2:emrE or empty pGDP-2; test: Efflux pump interplay MIC profiling (pGDP2:emrE), porinated; conditions: for MIC / Fold Change from EKO-35: Pore +
Excerpt: This plasmid enables single-copy genomic integration of a selected gene through integration into the nonessential araC gene within the arabinose operon (Cox, G. et al., 2022). All E. coli genes were amplified from E. coli BW25113 genomic DNA, and mexCD was amplified from P. aeruginosa PAO1, using a high-fidelity polymerase, followed by ligation into pINT2. Successful clones were verified using PCR (Primers: pLac-Fwd/pINT-Rev, Table 4) and confirmed via Sanger sequencing at The Centre for Applied Genomics (TCAG) (The Hospital for Sick Children) and the AAC (University of Guelph). For the interplay studies, this process was repeated using the pGDP2 plasmid (Cox, G. et al., 2022).
To enable comparison between efflux production in different genetic backgrounds, each efflux pump-encoding gene was also integrated into the genome of the wild-type BW25113 strain, the single gene deletion mutant from the Keio Collection, and EKO-35. Strains of interest were propagated on LB agar at 37° C. Cell inoculum was prepared using the colony resuspension method and applied to a 96-well well plate (VWR) in technical duplicate, and the minimum inhibitory concentrations were determined according to Clinical & Laboratory Standards Institute (CLSI) protocols in MHB II (Patel J. B. et al, 2015). The plates were incubated for 18 h (Multitron Shaker, Infors HT) at 37° C. with aeration at 900 rpm. The plates were equilibrated to room temperature before the OD600 nm was measured using a BioTek Synergy H1 microplate reader. For interplay profiling, blank subtracted OD600 nm values >0.1 were considered to represent growth.
To investigate, the EKO-35-Pore strains were profiled using the same approach.

[6] = 4 μg/mL chloramphenicol selection
[7] = EKO-35 acrEF Pore, PAβN + antibiotic
[8] = EKO-35 acrD Pore, PAβN + antibiotic
[9] = EKO-35 acrD Pore, antibiotic alone (PAβN checkerboard)
[10] = EKO-35 acrD Pore, antibiotic in combination with PAβN
[11] = strain EKO-35 acrD Pore, NMP + antibiotic
[12] = EKO-35 mdtEF Pore, NMP + antibiotic
[13] = EKO-35 mdtEF Pore, PAβN + antibiotic
[14] = strain EKO-35 mdtEF Pore, NMP + antibiotic

## N#Cc1ccc(-c2c(NC(=O)C(Cl)Cl)oc(-c3cccs3)c2C#N)cc1 [compound 2]
EKO-35 gyrB (pCA24N); [6]
  MIC, EKO-35 gyrB (pCA24N), Chlor +: >5 μg/mL
EKO-35 gyrB (pCA24N); no plasmid selection
  MIC, EKO-35 gyrB (pCA24N), Chlor −: >5 μg/mL
EKO-35 rspA (pCA24N); [6]
  MIC, EKO-35 rspA (pCA24N), Chlor +: >5 μg/mL
EKO-35 rspA (pCA24N); no plasmid selection
  MIC, EKO-35 rspA (pCA24N), Chlor −: >5 μg/mL
EKO-35 tufA (pCA24N); [6]
  MIC, EKO-35 tufA (pCA24N), Chlor +: >5 μg/mL
EKO-35 tufA (pCA24N); no plasmid selection
  MIC, EKO-35 tufA (pCA24N), Chlor −: >5 μg/mL

## CC(=O)O[C@H]1C[C@@]2(C)[C@@H](C[C@@H](O)[C@H]3[C@@]4(C)CC[C@@H](O)[C@@H](C)[C@@H]4CC[C@@]32C)/C1=C(\CCC=C(C)C)C(=O)O [fusidic acid]
[1]; EKO-35 acrEF Pore, NMP + antibiotic
  Effect: Additive
[1]; [7]
  Effect: Synergistic
  FICI: 0.313
[1]; EKO-35 acrEF Pore, antibiotic alone (PAβN checkerboard)
  MICb Alone: 4 µg/mL
[1]; EKO-35 acrEF Pore, antibiotic in combination with PAβN
  MICb Combined: 1 µg/mL
[1]; strain EKO-35 acrEF Pore, NMP + antibiotic
  Effect: Additive (additive (FICI >0.5-1.0))
[1]; strain EKO-35 acrEF Pore, antibiotic alone
  MICb Alone: 2 µg/mL
[1]; strain EKO-35 acrEF Pore, antibiotic in combination with NMP
  MICb Combined: 1 µg/mL
[2]; EKO-35 acrD Pore, NMP + antibiotic
  FICI: 1.000
[2]; [8]
  Effect: Synergistic
  FICI: 0.250
[2]; [9]
  MICb Alone: 64 µg/mL
[2]; [10]
  MICb Combined: 8 µg/mL
[2]; [11]
  Effect: — (indifferent (FICI >1.0))
  FICI: 1.000
[2]; strain EKO-35 acrD Pore, antibiotic alone
  MICb Alone: 64 µg/mL
[2]; strain EKO-35 acrD Pore, antibiotic in combination with NMP
  MICb Combined: 32 µg/mL
[3]; [12]
  Effect: Additive
  FICI: 0.750
[3]; [13]
  Effect: Synergistic
  FICI: 0.250
[3]; EKO-35 mdtEF Pore, antibiotic alone (PAβN checkerboard)
  MICb Alone: 16 µg/mL
[3]; EKO-35 mdtEF Pore, antibiotic in combination with PAβN
  MICb Combined: 2 µg/mL
[3]; [14]
  Effect: Additive (additive (FICI >0.5-1.0))
  FICI: 0.750
[3]; strain EKO-35 mdtEF Pore, antibiotic alone
  MICb Alone: 8 µg/mL
[3]; strain EKO-35 mdtEF Pore, antibiotic in combination with NMP
  MICb Combined: 2 µg/mL

## CO[C@@H]1[C@@H](OC(N)=O)[C@@H](O)[C@H](Oc2ccc3c(O)c(NC(=O)c4ccc(O)c(CC=C(C)C)c4)c(=O)oc3c2C)OC1(C)C [novobiocin]
EKO-35 gyrB (pCA24N); ASKA plasmid
  effect of gyrB overexpression on resistance of EKO-35: increased novobiocin resistance
EKO-35 gyrB (pCA24N); Escherichia coli, EKO-35 gyrB, Chlor + (4 μg/mL), read-out: MIC
  MIC: 25 µg/mL
[2]; [8]
  Effect: Additive
  FICI: 0.563
[2]; [9]
  MICb Alone: 16 µg/mL
[2]; [10]
  MICb Combined: 1 µg/mL
[2]; acrD expressed in the porinated strain
  interaction of PAβN in combination with the labelled antibiotic (FICI): synergy was lost
[4]; EKO-35, AcrB, AcrEF, AcrD, MdtEF combined with pEmrE
  interplay of EmrE with tripartite efflux pumps on resistance: Interplay was not observed; also recorded: did not observe synergy
[4]; negative controls
  extrusion by EmrE: not extruded by EmrE
[4]; strain EKO-35
  MIC: 0.781 µg/mL (≈ 1.27 µM)
[4]; strain EKO-35 pEmrE
  Fold Change from EKO-35: 1
  MIC: 0.781 µg/mL (≈ 1.27 µM)
[4]; strain acrB pEmrE
  Fold Change from EKO-35: 512
  MIC: 400 µg/mL (≈ 653 µM)
[4]; strain acrB
  Fold Change from EKO-35: 512
  MIC: 400 µg/mL (≈ 653 µM)
[4]; strain acrD pEmrE
  Fold Change from EKO-35: 64
  MIC: 50 µg/mL (≈ 81.6 µM)
[4]; strain acrD
  Fold Change from EKO-35: 128
  MIC: 100 µg/mL (≈ 163 µM)
[4]; strain acrEF pEmrE
  Fold Change from EKO-35: 64
  MIC: 50 µg/mL (≈ 81.6 µM)
[4]; strain acrEF
  Fold Change from EKO-35: 128
  MIC: 100 µg/mL (≈ 163 µM)
[4]; strain mdtEF pEmrE
  Fold Change from EKO-35: 8
  MIC: 6.25 µg/mL (≈ 10.2 µM)
[4]; strain mdtEF
  Fold Change from EKO-35: 16
  MIC: 12.5 µg/mL (≈ 20.4 µM)
[5]; EKO-35-Pore, AcrB, AcrEF, AcrD, MdtEF combined with pEmrE
  interplay of EmrE with tripartite efflux pumps on resistance: Interplay was not observed
[5]; strain EKO-35
  MIC: 0.391 µg/mL
[5]; strain EKO-35 pEmrE
  Fold Change from EKO-35: 1
  MIC: 0.391 µg/mL
[5]; strain acrB pEmrE
  Fold Change from EKO-35: 256
  MIC: 100 µg/mL
[5]; strain acrB
  Fold Change from EKO-35: 256
  MIC: 100 µg/mL
[5]; strain acrD pEmrE
  Fold Change from EKO-35: 16
[5]; strain acrD
  Fold Change from EKO-35: 64
  MIC: 25 µg/mL
[5]; strain acrEF pEmrE
  Fold Change from EKO-35: 32
[5]; strain acrEF
  Fold Change from EKO-35: 32
[5]; strain mdtEF pEmrE
  Fold Change from EKO-35: 4
  MIC: 1.56 µg/mL
[5]; strain mdtEF
  Fold Change from EKO-35: 8
  MIC: 3.13 µg/mL

## phenylalanine-arginine-β-naphthylamide [PAβN]
[1]; EKO-35 acrEF Pore
  PABN MICa Alone: 64 µg/mL
[1]; EKO-35 acrEF Pore, listed as PABN
  PABN MICa Alone: 128 µg/mL
[1]; EKO-35 acrEF Pore, with Ciprofloxacin
  PABN MICa Combined: 16 µg/mL
[1]; EKO-35 acrEF Pore, with Erythromycin
  PABN MICa Combined: 16 µg/mL
[1]; EKO-35 acrEF Pore, with Fusidic Acid
  PABN MICa Combined: 8 µg/mL
[1]; EKO-35 acrEF Pore, with Oxacillin
  PABN MICa Combined: 32 µg/mL
[2]; EKO-35 acrD Pore, PAβN alone, one value per checkerboard, listed as PABN
  PABN MICa Alone: 32 µg/mL and 64 µg/mL
[2]; EKO-35 acrD Pore, with Fusidic Acid
  PABN MICa Combined: 8 µg/mL
[2]; EKO-35 acrD Pore, with Novobiocin
  PABN MICa Combined: 16 µg/mL
[2]; EKO-35 acrD Pore, with Oxacillin
  PABN MICa Combined: 16 µg/mL
[3]; EKO-35 mdtEF Pore, PAβN alone, one value per checkerboard
  PABN MICa Alone: 64 µg/mL
[3]; EKO-35 mdtEF Pore, with Erythromycin
  PABN MICa Combined: 32 µg/mL
[3]; EKO-35 mdtEF Pore, with Fusidic Acid
  PABN MICa Combined: 8 µg/mL
